Assay results as given in the RepoRT retention time repository.

test: RP, Waters CORTECS UPLC C18, 100 × 2.1 mm, 1.6 µm, 40 °C, 0.4 mL/min, estimated dead time 0.55 min; A: water + 0.1% formic acid, pH 3; B: acetonitrile + 0.1% formic acid, pH 3; gradient (min/%B) 0/5 1.12/5 6.41/99.5 10.01/99.5; settings: stereoisomer not certain

Structure (SMILES)	LC retention time [min]
CCOC(=O)CCN(SN(C)C(=O)Oc1cccc2c1OC(C)(C)C2)C(C)C [Benfuracarb]	6.01
C[Si](Cn1cncn1)(c1ccc(F)cc1)c1ccc(F)cc1 [Flusilazole]	5.06
COc1nc(C)nc(NC(=O)NS(=O)(=O)c2ccccc2Cl)n1 [Chlorsulfurson]	4.12
NC(=O)c1ccccc1O [SALICYLAMIDE]	2.88
CC(=O)N[C@@H](Cc1ccc(O)cc1)C(=O)O [N-Acetyl-L-tyrosine]	2.29
N[C@@H](Cc1ccc(O)c([N+](=O)[O-])c1)C(=O)O [3-NITRO-L-TYROSINE]	1.5
CC1NC(=O)NC1CCCCCC(=O)O (stereo not given) [DETHIOBIOTIN]	2.9
CC(CCC(=O)O)C1CCC2C3CC(O)C4CC(O)CCC4(C)C3CCC12C (stereo not given) [Hyodeoxycholic acid]	4.58
COC(=O)c1sccc1S(=O)(=O)NC(=O)Nc1nc(C)nc(OC)n1 [Thifensulfurson methyl]	3.9
CCCCCC=CC(=O)OC(CC(=O)[O-])C[N+](C)(C)C [trans-2-Octenoyl-L-carnitine]	3.56
CNC(=O)ON=C(C)SC [Methomyl]	4.02
O=Cc1ccc(O)cc1 [4-HYDROXYBENZALDEHYDE]	2.13
CCCCCCCCC[n+]1cccc(S(=O)(=O)[O-])c1 [C9-APS]	3.99
CCOP(=O)(NC(C)C)Oc1ccc(SC)c(C)c1 (stereo not given) [Fenamiphos]	4.89
Cc1ncc2c(c1O)C(=O)OC2 [4-Pyridoxolactone]	0.792
Cc1cc(C(F)(C(F)(F)F)C(F)(F)F)ccc1NC(=O)c1cccc(I)c1C(=O)NC(C)(C)CS(C)(=O)=O [Flubendiamide]	5.35
CON=C1CC2(CC3CC(CC=C(C)CC(C)C=CC=C4COC5C(O)C(C)=CC(C(=O)O3)C45O)O2)OC(C(C)=CC(C)C)C1C (stereo not given) [Moxidectin]	6.81
CCCCCCCCCCCCCCCCCC[n+]1cccc(S(=O)(=O)[O-])c1 [C18-APS]	6.58
O=[N+]([O-])c1cc(C(F)(F)F)c(Cl)c([N+](=O)[O-])c1Nc1ncc(C(F)(F)F)cc1Cl [Fluazinam]	5.97
Cn1cnc2c(ncn2C2OC(CO)C(O)C2O)c1=N (stereo not given) [1-METHYLADENOSINE]	0.965
CC(C)=CCCC(C)C1CCC2C3CC=C4CC(O)CCC4(C)C3CCC12C (stereo not given) [Desmosterol]	6.81
CCCCCCSCC(NC(=O)CCC(N)C(=O)O)C(=O)NCC(=O)O (stereo not given) [S-HEXYL-GLUTATHIONE]	3.31

Structure (SMILES)	LC retention time [min]
CCN(Cc1ccc(Cl)nc1)C(=C[N+](=O)[O-])NC [Nitenpyram]	2.6
O=C(O)CCc1c[nH]c2ccccc12 [Indole-3-propionic acid]	3.7
CSCC1OC(n2cnc3c(N)ncnc32)C(O)C1O (stereo not given) [METHYLTHIOADENOSINE]	2.19
CNC(=O)Oc1cccc2c1OC(C)(C)C2 [Carbofuran]	4.09
CCOC(=O)CCN(Cc1ccccc1)SN(C)C(=O)ON=C(C)SC [Alanycarb]	5.25
CC1(C(=O)Nc2ccc(O)c(Cl)c2Cl)CCCCC1 [Fenhexamid]	5
CON(C)C(=O)Nc1ccc(Cl)c(Cl)c1 [Linuron]	4.8
CC12CC1(C)C(=O)N(c1cc(Cl)cc(Cl)c1)C2=O (stereo not given) [Procymidone]	5.21
COC(=O)c1ccccc1S(=O)(=O)NC(=O)Nc1nc(C)nc(OC)n1 [Metsulfuron-methyl]	3.99
CSc1nnc(C(C)(C)C)c(=O)n1N [Metribuzin]	3.98
COC(=O)Nc1nc2ccccc2[nH]1 [Carbendazim]	2.38
CC1(C)CCC(=Cc2ccc(Cl)cc2)C1(O)Cn1cncn1 (stereo not given) [Triticonazole]	4.76
Cc1ccc(C(C)NC(=O)C(NC(=O)OC(C)C)C(C)C)cc1 (stereo not given) [Iprovalicarb]	4.86
Cn1c(=O)c2[nH]cnc2n(C)c1=O [THEOPHYLLINE]	2.15
CCCCCCCCCCCCCCCCCCC[n+]1cccc(S(=O)(=O)[O-])c1 [C19-APS]	6.81
CCOc1ccc(NC(=O)OC(C)C)cc1OCC [Diethofencarb]	4.83
CCCCC(O)(Cn1cncn1)c1ccc(Cl)cc1Cl (stereo not given) [Hexaconazole]	5.17
CCCC[n+]1cccc(S(=O)(=O)[O-])c1 [C4-APS]	1.11
CN(C)C(=O)Nc1ccccc1 [Fenuron]	3.14
CCOC(=O)C(SP(=S)(OC)OC)c1ccccc1 (stereo not given) [Phenthoate]	5.54
Cc1nn(-c2cc(NS(C)(=O)=O)c(Cl)cc2Cl)c(=O)n1C(F)F [Sulfentrazone]	4.21
O=c1[nH]c(=O)c2[nH]c(=O)[nH]c2[nH]1 [URATE]	0.727

Structure (SMILES)	LC retention time [min]
CC(C)(C)C(O)C(=Cc1ccc(Cl)cc1Cl)n1cncn1 (stereo not given) [Diniconazole]	5.27
O=C(O)c1cc(O)c(O)c(O)c1 [Gallic acid]	0.886
CC(C)N(C(=O)COc1nnc(C(F)(F)F)s1)c1ccc(F)cc1 [Flufenacet]	5.22
CCc1nn(C)c(C(=O)NCc2ccc(C(C)(C)C)cc2)c1Cl [Tebufanpyrad]	5.93
Nc1c(O)cccc1C(=O)O [3-HYDROXYANTHRANILATE]	0.722
CC(C)C1CCC(Cc2ccc(Cl)cc2)C1(O)Cn1cncn1 (stereo not given) [Ipconazole]	5.48
Cc1ccn2nc(S(=O)(=O)Nc3c(F)cccc3F)nc2n1 [Flumetsulam]	3.43
COc1ccc(-c2ccccc2)cc1NNC(=O)OC(C)C [Bifenazate]	5.09
Nc1cc(O)cc(C(=O)O)c1 [3-AMINO-5-HYDROXYBENZOATE]	0.722
O=C(NC(=O)c1c(F)cccc1F)Nc1cc(Cl)c(OC(F)(F)C(F)F)c(Cl)c1 [Hexaflumuron]	5.61
CCCN(CCC)C(=O)SCc1ccccc1 [Prosulfocarb]	5.95
CC(C)=CCCC(C)=CCCC(C)=CCCC=C(C)CCC=C(C)CCC=C(C)C [SQUALENE]	6.18
O=c1[nH]c(=O)c2ncn(C3OC(CO)C(O)C3O)c2[nH]1 (stereo not given) [XANTHOSINE]	0.752
OCC1OC(O)C(O)C1O (stereo not given) [RIBOSE]	0.798
CN(C)C(=O)NC1CCCCCCC1 [Cycluron]	4.22
C#CCN1C(=O)COc2cc(F)c(N3C(=O)C4=C(CCCC4)C3=O)cc21 [Flumioxazin]	4.77
CCCCCCCCCCCCCC(=O)OC(CC(=O)[O-])C[N+](C)(C)C [Myristoyl-L-carnitine]	5.13
OC(c1ccc(Cl)cc1)(c1cncnc1)c1ccccc1Cl (stereo not given) [Fenarimol]	4.86
Cc1cc(C)c(C2=C(OC(=O)CC(C)(C)C)C3(CCCC3)OC2=O)c(C)c1 [Spiromesifen]	6.47
CC(C)N1C(=O)N(c2ccccc2)CSC1=NC(C)(C)C [Buprofezin]	5.45
CCCCCCCCCCC[n+]1cccc(S(=O)(=O)[O-])c1 [C11-APS]	4.59
